Laboratory results reported in article PMC3364000 (Vaccine, 2009).
pIC50: −log10 of the molar value. Peptide text beside a SMILES is read from it.

Assays:
Assay in all cases: biochemical
Assay type in all cases: binding
HLA-DRB1*0301 = HLA-DRB1*0301 (Homo sapiens, UniProt P01903+P01911, A100K/A102G/A103R/A169T/F55Y/I96L/K41T/L162R/M171V/P40S/Q125H/Q178H/Q39Y/R42S/S66N/T106N/T262R/W38E/Y61H)
HLA-DRB5*0101 = HLA-DRB5*0101 (Homo sapiens, UniProt P01903+Q30154)
HLA-DRB1*0405 = HLA-DRB1*0405 (Homo sapiens, UniProt P01903+P01911, A100R/A169T/D86S/F76Y/I96L/K127E/L162R/M171V/N62H/P40V/Q125Y/R42H/S133A/S149N/S66Y/V115G/V209L/W38E)
HLA-DRB1*0101 = HLA-DRB1*0101 (Homo sapiens, UniProt P01903+P01911, A100R/D57E/F55L/F60I/F76Y/I96L/L162R/M171V/P40L/Q125E/R42F/V115G/Y59C)
HLA-DRB1*0701 = HLA-DRB1*0701 (Homo sapiens, UniProt P01903+P01911, A100R/A102G/A103Q/D57E/D86V/E43K/F76Y/K127E/L162R/M171V/P40G/Q125H/Q99D/R33Q/R42Y/R54Q/S133A/S66F/T210M/V115G/Y107V/Y59L/Y89S)
HLA-DRB4*0101 = HLA-DRB4*0101 (Homo sapiens, UniProt P01903+P13762, G164S)
HLA-DRB1*1302 = HLA-DRB1*1302 (Homo sapiens, UniProt P01903+P01911, A100E/A169T/K41T/L162R/M171V/P40S/Q125H/Q178H/Q39Y/Q99D/R42S/S66N/T262R/V115G/W38E/Y61H)
Sequence of HLA-DRB1*1302 (P01903 26-254 limits assumed, other chains not shown): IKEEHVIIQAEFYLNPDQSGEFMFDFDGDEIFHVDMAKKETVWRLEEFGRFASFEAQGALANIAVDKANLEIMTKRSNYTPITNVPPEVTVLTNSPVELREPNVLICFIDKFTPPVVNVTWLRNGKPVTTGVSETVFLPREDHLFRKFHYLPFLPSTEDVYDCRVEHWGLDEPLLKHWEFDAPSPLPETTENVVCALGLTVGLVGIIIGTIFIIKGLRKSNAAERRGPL

HLA-DRB1*0401 = HLA-DRB1*0401 (Homo sapiens, UniProt P01903+P01911, A100K/A169T/F76Y/I96L/K127E/L162R/M171V/N62H/P40V/Q125Y/R42H/S133A/S149N/S66Y/V115G/V209L/W38E)
HLA-DRB1*0901 = HLA-DRB1*0901 (Homo sapiens, UniProt P01903+P01911, A100R/A103E/D57H/D86V/F55Y/F60I/F76Y/I96F/K127E/L162R/M171V/P40D/Q125H/Q99R/R33Q/R42F/S133A/S66N/T210M/V115G/W38K/Y107V/Y59G/Y89S)
HLA-DRB1*0404 = HLA-DRB1*0404 (Homo sapiens, UniProt P01903+P01911, A100R/A169T/F76Y/I96L/K127E/L162R/M171V/N62H/P40V/Q125Y/R42H/S133A/S149N/S66Y/V209L/W38E)
HLA-DRB1*1101 = HLA-DRB1*1101 (Homo sapiens, UniProt P01903+P01911, A100R/A169T/A87E/I96F/K41T/L162R/M171V/P40S/Q125H/Q178H/Q39Y/Q99D/R42S/S66Y/T262R/V115G/W38E)
Sequence of HLA-DRB1*1101 (P01903 26-254 limits assumed, other chains not shown): as above

HLA-DRB1*0802 = HLA-DRB1*0802 (Homo sapiens, UniProt P01903+P01911, A100R/A103L/A169T/F76Y/H45Y/I96F/K41T/L162R/M171V/P40S/Q125H/Q178H/Q39Y/Q99D/R218S/R42G/S66Y/V115G/W38E)
HLA-DRB1*1501 = HLA-DRB1*1501 (Homo sapiens, UniProt P01903+P01911)

Sequence of HLA-DRB1*0301 (P01903 26-254, other chains not shown): as the sequence (P01903 26-254 limits assumed, other chains not shown) above

| Compound | pIC50 (HLA-DRB1*0301) | pIC50 (HLA-DRB5*0101) | pIC50 (HLA-DRB1*0405) | pIC50 (HLA-DRB1*0101) | pIC50 (HLA-DRB1*0701) | pIC50 (HLA-DRB4*0101) | pIC50 (HLA-DRB1*1302) | pIC50 (HLA-DRB1*0401) | pIC50 (HLA-DRB1*0901) | pIC50 (HLA-DRB1*0404) | pIC50 (HLA-DRB1*1101) | pIC50 (HLA-DRB1*0802) | pIC50 (HLA-DRB1*1501) |
| --- | --- | --- | --- | --- | --- | --- | --- | --- | --- | --- | --- | --- | --- |
| CC[C@H](C)[C@H](NC(=O)CNC(=O)[C@@H](NC(=O)[C@@H](NC(=O)[C@H](CO)NC(=O)[C@H](C)NC(=O)[C@H](C)NC(=O)[C@@H](NC(=O)[C@@H](NC(=O)[C@H](CC(C)C)NC(=O)[C@@H]1CCCN1C(=O)[C@@H](N)CC(=O)O)C(C)C)C(C)C)[C@@H](C)CC)[C@@H](C)CC)C(=O)N[C@@H](CC(C)C)C(=O)N[C@@H](Cc1c[nH]cn1)C(=O)N[C@@H](CC(C)C)C(=O)O [M2.24] | < 5.00 | < 5.00 |  |  |  |  |  |  |  |  |  |  |  |
| CC[C@H](C)[C@H](N)C(=O)NCC(=O)N[C@@H](CCCNC(=N)N)C(=O)N[C@@H](Cc1ccccc1)C(=O)N[C@@H](Cc1ccc(O)cc1)C(=O)N[C@H](C(=O)N[C@@H](CCC(N)=O)C(=O)N[C@@H](CCSC)C(=O)N[C@@H](CS)C(=O)N[C@H](C(=O)N[C@@H](CCC(=O)O)C(=O)N[C@@H](CC(C)C)C(=O)N[C@@H](CCCCN)C(=O)N[C@@H](CC(C)C)C(=O)N[C@@H](CO)C(=O)N[C@@H](CC(=O)O)C(=O)N[C@@H](Cc1ccc(O)cc1)C(=O)N[C@@H](CCC(=O)O)C(=O)NCC(=O)O)[C@@H](C)O)[C@@H](C)CC [NP.36] (H-IGRFYIQMCTELKLSDYEG-OH) | 6.54 | 7.55 | 7.54 | 7.51 | 6.35 | 6.68 | 5.57 | 7.28 | 6.71 | 6.94 | 6.63 | 6.31 | 7.64 |
| CC[C@H](C)[C@H](NC(=O)[C@H](CO)NC(=O)[C@H](CC(N)=O)NC(=O)[C@@H](N)CCC(N)=O)C(=O)N[C@H](C(=O)N[C@H](C(=O)N[C@@H](CCC(=O)O)C(=O)N[C@@H](CCCNC(=N)N)C(=O)N[C@@H](CCSC)C(=O)N[C@H](C(=O)N[C@@H](CC(C)C)C(=O)N[C@@H](CO)C(=O)N[C@@H](C)C(=O)N[C@@H](Cc1ccccc1)C(=O)N[C@@H](CC(=O)O)C(=O)O)C(C)C)[C@@H](C)CC)[C@@H](C)O [NP.58] |  | < 5.00 |  |  |  |  |  |  |  | 6.73 |  |  |  |
| CSCC[C@H](NC(=O)[C@H](Cc1c[nH]c2ccccc12)NC(=O)[C@@H](NC(=O)[C@H](CC(C)C)NC(=O)[C@H](CCC(N)=O)NC(=O)[C@H](CO)NC(=O)[C@@H](N)CCCCN)C(C)C)C(=O)N[C@@H](C)C(=O)N[C@@H](CS)C(=O)N[C@@H](Cc1c[nH]cn1)C(=O)N[C@@H](CO)C(=O)N[C@@H](C)C(=O)N[C@@H](C)C(=O)N[C@@H](Cc1ccccc1)C(=O)N[C@@H](CCC(=O)O)C(=O)O [NP.325] |  |  |  | 7.46 |  |  | < 5.00 |  |  | 7.47 |  |  |  |
| CC[C@H](C)[C@H](NC(=O)[C@H](C)NC(=O)CNC(=O)[C@@H](N)CCC(=O)O)C(=O)N[C@H](C(=O)NCC(=O)N[C@@H](CCC(=O)O)C(=O)N[C@H](C(=O)N[C@@H](CO)C(=O)N1CCC[C@H]1C(=O)N[C@@H](CC(C)C)C(=O)N1CCC[C@H]1C(=O)N[C@@H](CO)C(=O)N[C@@H](CC(C)C)C(=O)N1CCC[C@H]1C(=O)NCC(=O)N[C@@H](Cc1c[nH]cn1)C(=O)N[C@H](C(=O)N[C@@H](CC(=O)O)C(=O)O)[C@@H](C)O)[C@@H](C)CC)C(C)C [NS1.153] | 5.08 | 5.94 | 7.01 | 7.19 | < 5.00 | 6.88 | 5.75 | 7.85 | 5.20 | 8.22 | 7.06 | 6.64 | 8.15 |
| CC[C@H](C)[C@H](NC(=O)[C@H](CCC(N)=O)NC(=O)[C@H](CCC(=O)O)NC(=O)[C@@H](N)Cc1ccccc1)C(=O)N[C@H](C(=O)N[C@@H](Cc1ccccc1)C(=O)N[C@@H](CCSC)C(=O)N[C@@H](CCC(N)=O)C(=O)N[C@@H](C)C(=O)N[C@@H](CC(C)C)C(=O)N[C@@H](CCC(N)=O)C(=O)N[C@@H](CC(C)C)C(=O)N[C@@H](CC(C)C)C(=O)N[C@@H](CC(C)C)C(=O)N[C@@H](CCC(=O)O)C(=O)O)[C@@H](C)O [NS2.94] |  |  |  |  |  |  |  |  |  |  |  |  | 8.00 |
| CC[C@H](C)[C@H](NC(=O)[C@H](CCCCN)NC(=O)[C@H](CC(N)=O)NC(=O)[C@H](C)NC(=O)[C@H](CCCCN)NC(=O)[C@H](CCC(=O)O)NC(=O)[C@H](CC(C)C)NC(=O)[C@H](Cc1ccc(O)cc1)NC(=O)[C@H](Cc1ccc(O)cc1)NC(=O)[C@@H](NC(=O)[C@H](Cc1c[nH]cn1)NC(=O)[C@@H](NC(=O)[C@H](CCC(=O)O)NC(=O)[C@H](CCCNC(=N)N)NC(=O)[C@@H](N)CCCNC(=N)N)C(C)C)[C@@H](C)CC)C(=O)O [PA.124] | < 5.00 |  |  |  |  |  |  |  |  |  |  |  | 8.40 |
